This note sets out measurements from patent US12496298B2, “Natural killer cells” (Imperial College Innovations Limited, priority 2017, dated 2025).

In this assay the test system is mouse NK cell (NK1.1+CD3−) production from HPCs. Kind of assay: In vitro development of NK cells from mouse HPCs (NK cell development assay, flow cytometry at Day 9). Type of assay: cell-based. The text has this:
FIG. 2: Timeline of NK cell development assay. HPCs were isolated and cultured plus FIt3L, IL-7 and SCF cytokines. At Day 2, they were then transferred onto OP9 stromal cells plus or minus drug in culture medium plus the IL-15 cytokine. The media of the cultures were changed at Day 5 and the cells were harvested and analysed at Day 9.
Lineage negative cells are enriched for Hematopoietic Progenitor Cells (HPCs). […] Cells were harvested on Day 9 and analysed using flow cytometry to determine the number of NK1.1^+CD3^− cells (FIG. 2). NK1.1^+ and CD3^− are two cell surface markers that can define mouse NK cells. OP9 stromal cells were readily excluded from the analysis, as the OP9 stromal cells used were GFP positive (FIG. 3B). Flow cytometry data were analysed as the fold increase, relative to the ‘No drug’ or untreated control in each experiment. This is because the absolute percentage of NK cell production varies between experiments.
Lineage negative HSCs were purified from mouse bone marrow by crushing the leg bones in Phosphate-buffered Saline (PBS) with 2% fetal calf serum (FCS) (STEMCELL Technologies), topped up to 40 ml with magnetic-activated cell sorting (MACS) buffer (PBS, 2 mM EDTA, 0.5% BSA, sterile and filtered) and centrifuged at 800 g for 2 minutes. The cells were resuspended in PE-conjugated cocktail, (20 μl of anti-B220 (RA3-6B2), anti-mouse CD2 (RM2-5, anti-Ter119 (TER119) and anti-NK.1.1 (PK136) and 5 μl of anti-CD11b (M1/70) and anti-GR-1 (RB6-8C5) antibodies (all from Bioscience)) incubated for 5 minutes at 4° C., centrifuged and resuspended in anti-PE microbeads for 15 minutes at 4° C. Cells were washed in MACS buffer and passed through MACS columns. This allowed negative selection of HPCs. Following lineage depletion, 50 μl of the cells was analysed using flow cytometry to check for purity.
The HPCs were plated and cultured in 24-well plates at a concentration of 5×10^5 HPCs/well in 1 ml of complete cytokine medium (Dulbecco's modified eagle medium (DMEM) (Sigma Aldrich), 10% FCS, 50 μM β-Mercaptoethanol, 10 ng/ml Flt3-ligand (FIt3L) (R&D Systems), 10 ng/ml IL-7 (R&D Systems), 100 ng/ml stem cell factor (SCF) (R&D Systems) and 1% P/S) for 2 days at 37° C., 5% CO2. The HPCs were then transferred onto OP9 cells at 4500 cells/well for 96-well plate experiments and 3×10^4 cells/well for 24-well plate experiments in mouse NK cells differentiation medium (Alpha-MEM (Sigma Aldrich) plus 20% FCS, 1% P/S and 30 ng/ml IL-15). Cells were left in culture at 37° C., 5% CO2 for 7 days with a change of mouse NK cells differentiation medium at day 3 or 4.
Cells to be analysed by flow cytometry were passed through 40 μm cell strainers to remove clumps and washed with PBS buffer, centrifuged at 800 g for 2 minutes and resuspended in 100 μl fluorescent activated cell sorting (FACS) buffer (PBS plus 1% BSA) with appropriate fluorochrome conjugated antibodies at a dilution of 1 in 300. Cells were stained with the following antibodies, all of which were anti-mouse and are from eBioscience unless specified: 2B4 (clone m2B4(B6) 458.1; BioLegend), CD2 (RM2-5), CD3 (17A2), CD11b (M1/70), CD19 (1D3), CD27 (LG.7F9), CD122 (TM-b1), CD127 (A7R34), B220 (RA3-6B2), ckit (ACK2), Flt3 (A2F10), Gr1 (RB6-8C5), NK1.1 (PK136), Sca1 (D7), Ter119 (TER119), NKp46 (29A1.4) anti-human CD45 (HI30), anti-human CD2 (RPA-2.10) and anti-human CD56 (CMSSB). The lineage cocktail contained B220, CD2, CD11b, Gr1, NK1.1, and Ter119. Cells were stained in the dark at 4° C. for 30 minutes and then washed with 2 ml FACS buffer, centrifuged and resuspend in 300 μl FACS buffer plus Propidium Iodide (PI) also at a dilution of 1 in 300. Flow cytometry was performed using LSRFortessa™ cell analyser (Becton Dickinson Bioscience), sorted using FACSAria (Becton Dickinson) as indicated and full data analysis was done using FlowJo Software.

With `CC(C)(C)OC(=O)CN(Cc1ccc(Cl)cc1)Cc1ccc([N+](=O)[O-])s1` [GSK4112], the “NK cell production reduced” value (GSK4112 tested at 2, 5, 10 and 20 μM (FIG. 6), concentration not given) is on record as roughly 50%. Moreover, for the setting “summary in Discussion”, the “effect on NK cell production” value is given as “decreasing NK cell production”. With `NC(=O)c1ccc(-c2nc(-c3ccc4c(c3)OCCO4)c(-c3ccccn3)[nH]2)cc1` [D4476], the “NK cell production compared to 'No drug' control” value (20 μM added Day 2, analysed Day 9, screen (FIG. 3)) is “significant increase”. For the compound `N#Cc1ccc(-c2csc(NN=C3CCCC3)n2)cc1` [Remodelin], the “NK cell production compared to 'No drug' control” value (5 μM added Day 2, analysed Day 9, screen (FIG. 3)) is listed as “significant increase”.
